From US7528162B2, “4,5-dihydro-1H-pyrazole derivatives having CB1-antagonistic activity” (Solvay Pharmaceuticals, B.V., priority 2001, dated 2009)

Compound	melting point [°C]
O=S(=O)(N=C(NCCF)N1CC(c2cccc(F)c2)C(c2ccc(Cl)cc2)=N1)c1ccc(Cl)cc1 (stereo not drawn)	130
O=S(=O)(N=C(NCCF)N1CC(c2cccc(F)c2)C(c2ccc(Cl)cc2)=N1)c1ccc(C(F)(F)F)cc1 (stereo not drawn) [Example 53, 3-(4-Chlorophenyl)-N-(2-fluoroethyl)-4-(3-fluorophenyl)-N′-((4-(trifluoromethyl)phenyl)sulfonyl)-4,5-dihydro-1H-pyrazole-1-carboxamidine]	155
CONC(=NS(=O)(=O)c1ccc(C(F)(F)F)cc1)N1CC(c2ccccc2F)C(c2ccc(Cl)cc2)=N1 (stereo not drawn)	147 to 149
O=S(=O)(N=C(NN1CCCCC1)N1CC(c2ccccc2)C(c2ccc(Cl)cc2)=N1)c1ccc(Cl)cc1 (stereo not drawn) [Example 1, 3-(4-Chlorophenyl)-N′-((4-chlorophenyl)sulfonyl)-N-(piperidin-1-yl)-4-phenyl-4,5-dihydro-1H-pyrazole-1-carboxamidine]	213 to 214
CN1CCN(C(=NS(=O)(=O)c2ccc(Cl)cc2)N2CC(c3cccc(C(F)(F)F)c3)C(c3ccc(Cl)cc3)=N2)CC1 (stereo not drawn) [Example 86, N-[(3-(4-chlorophenyl)-4-(3-(trifluoromethyl)phenyl)-4,5-dihydro-1H-pyrazol-1-yl)(4-methylpiperazin-1-yl)methylene]-4-chlorobenzenesulfonamide]	97 to 100
O=S(=O)(N=C(NCCF)N1CC(c2c(F)cccc2F)C(c2ccc(Cl)cc2)=N1)c1ccc(Cl)cc1 (stereo not drawn) [Example 51, 3-(4-Chlorophenyl)-N′-((4-chlorophenyl)sulfonyl)-N-(2-fluoroethyl)-4-(2,6-difluorophenyl)-4,5-dihydro-1H-pyrazole-1-carboxamidine]	153 to 155
CONC(=NS(=O)(=O)c1ccc(Cl)cc1)N1CC(c2cccc(C(F)(F)F)c2)C(c2ccc(Cl)cc2)=N1 (stereo not drawn) [Example 49, 3-(4-Chlorophenyl)-N′-((4-chlorophenyl)sulfonyl)-N-methoxy-4-(3-(trifluoromethyl)phenyl)-4,5-dihydro-1H-pyrazole-1-carboxamidine]	80 to 83
CONC(=NS(=O)(=O)c1ccc(Cl)cc1)N1CC(c2c(F)cccc2F)C(c2ccc(Cl)cc2)=N1 (stereo not drawn)	174 to 177
CONC(=NS(=O)(=O)c1cc(F)c(F)cc1F)N1CC(c2ccccc2)C(c2ccc(Cl)cc2)=N1 (stereo not drawn)	160 to 162

Now from value to compound:

melting point [°C]	Compound
201 to 203	CONC(=NS(=O)(=O)c1ccc(Cl)cc1)N1CC(c2ccccc2)C(c2ccc(F)cc2)=N1 (stereo not drawn)
145 to 146	CONC(=NS(=O)(=O)c1ccccc1C)N1CC(c2ccccc2)C(c2ccc(Cl)cc2)=N1 (stereo not drawn)
151 to 152	CONC(=NS(=O)(=O)c1cccc(C)c1)N1CC(c2ccccc2)C(c2ccc(Cl)cc2)=N1 (stereo not drawn)
162 to 164	CONC(=NS(=O)(=O)c1ccc(Cl)cc1)N1CC(c2ccccc2F)C(c2ccc(Cl)cc2)=N1 (stereo not drawn) [Example 56, 3-(4-Chlorophenyl)-N′-((4-chlorophenyl)sulfonyl)-4-(2-fluorophenyl)-N-(methoxy)-4,5-dihydro-1H-pyrazole-1-carboxamidine]
180 to 181	CONC(=NS(=O)(=O)c1ccc(Cl)cc1)N1CC(c2ccccc2)C(c2ccc(Cl)s2)=N1 (stereo not drawn) [Example 47, 3-(5-Chlorothien-2-yl)-N′-((4-chlorophenyl)sulfonyl)-N-methoxy-4-phenyl-4,5-dihydro-1H-pyrazole-1-carboxamidine]
> 260	CONC(=NS(=O)(=O)c1ccc(C(F)(F)F)cc1)N1CC(c2cccc(F)c2)C(c2ccc(Cl)cc2)=N1 (stereo not drawn)
